Results taken from patent US20240368104A1, “Novel Dialkoxynaphtho[2,3-C]Furan-1(3H)-One Derivatives and Pharmaceutical Composition For Preventing or Treating Respiratory Disease or SARS-COV-2 Infection Disease, Comprising Same” (priority 2021, published 2024).

What was measured:
SARS-COV-2 = experiment: microbe, parasite or virus in culture; type: cell-based; parameters: SI (Selectivity Index, CC50/IC50): unit not given here
[1] = tested on: SFTS virus (KADGH; NCCP43261); experiment: microbe, parasite or virus in culture; type: cell-based, severe fever with thrombocytopenia syndrome virus; parameters: SI (Selectivity Index, CC50/IC50): unit not given here
dengue virus = experiment: Inhibitory effect against dengue virus in Vero E6 cells; type: cell-based
Experimental: On the next day, a compound having a concentration of 0.0625 micro M was prepared from a compound having a concentration of 3 micro M and treated to Vero E6 cells, and then the cells treated with the compound were immediately infected with dengue virus (0.01 MOI) and cultured at 37° C. for five days.

in vitro [2] = details: African green monkey
in vitro [3] = details: African green monkey; remark: listed apart in the source
Zika virus = experiment: Inhibitory effect against Zika virus in Vero cells; type: cell-based

COc1cc2cc3c(c(-c4ccc5c(c4)OC(F)(F)O5)c2cc1OC)C(=O)OC3 [Example 221, 9-(2,2-difluorobenzo[d][1,3]dioxol-5-yl)-6,7-dimethoxynaphtho[2,3-c]furan-1(3H)-one]
SI (Selectivity Index, CC50/IC50) (SARS-COV-2; SARS-COV-2, values >50 assumed to be 50): 275.32 | IC50 (SARS-COV-2; Severe acute respiratory syndrome coronavirus 2, Vero cells, 24 hours infection, read-out: SARS-COV-2 inhibition (IC50)): 180 nM | SI (Selectivity Index, CC50/IC50) ([1]; SFTS virus): 11472 | IC50 ([1]; Severe fever with thrombocytopenia syndrome virus, Vero, 24 h, read-out: SFTSV inhibition (IC50, μM)): 0.04 µM | protection from cytopathic effects induced by dengue virus (dengue virus): protects from cytopathic effects | EC50 (dengue virus; Dengue virus, Vero C1008, 120 h, 0.01 MOI, five days, read-out: Dengue virus Inhibitory ability (EC50)): 79 nM | CC50 at 24 h (in vitro [2]): 457000 nM | CC50 (in vitro [3]): > 50000 nM | protection from cytopathic effects induced by Zika virus (Zika virus): protects from cytopathic effects | EC50 (Zika virus; Zika virus, 120 h, 0.02 MOI, five days, read-out: Zika virus Inhibitory ability (EC50)): 484 nM
